# According to patent US11013780B2, “Methods of treating female infertility” (Myovant Sciences GmbH, priority 2016, dated 2021):
# Several values for one entry are separate records, joined by “and”; a condition that tells them apart may be missing. Equal entries are not always repeated. Where two headings read alike, the source gives them in different places. Where a SMILES comes first, the peptide text is derived from it. [ ]: non-standard residue; d: D form. Arg(Me) = CNC(=N)NCCC[C@H](N)C(=O)O; Hyp = O=C(O)[C@@H]1C[C@@H](O)CN1; azaGly = NNC(=O)O
# Experiments:
# dog KISS1R = biological target: T1, dog KISS1R (Canis lupus familiaris, UniProt A0A8I3S0V2); assay: Intracellular Ca2+ mobilization (fluorometric imaging plate reader), dog KISS1R; assay type: cell-based
# T1 construct: expressed in transfected cells; host or cells: Chinese hamster ovary dihydrofolate reductase negative cells
# Experimental: The effects of API-MA on intracellular Ca^2+ mobilization in KISS1R-expressing recombinant cells were evaluated by performing the fluorometric imaging plate reader assay.
# [1] = In vitro distribution into blood cells, humans; assay type: in vitro ADME
# Experimental: The in vitro distribution ratios of [^14C]API-MA into the blood cells at the concentrations of 0.01, 0.1, 1, and 10 μg/mL API-FB (free form) were 7.8%, 8.0%, 7.1%, and 4.8% for rats, 2.4%, 2.0%, 1.6%, and 1.2% for dogs, and 2.0%, 0.0%, 0.0%, and 0.5% for humans, respectively. […] The in vitro plasma protein binding ratios of [^14C]API-FB in rats, dogs, monkeys, and humans were determined by the ultracentrifugation method. In addition, the protein binding to human serum albumin (HSA), α1-acid glycoprotein (AGP), and HSA/AGP was investigated. […] In rats and dogs, a slight decrease in the binding ratio at the concentration range between 0.1 and 1.0 μg/mL API-FB was observed. In monkeys and humans, the binding was independent of the drug concentrations from 0.01 to 10 μg/mL API-FB.
# [2] = Tissue distribution and excretion of radioactivity in rats; assay type: in vivo
# Experimental: The concentrations of the radioactivity in the tissues of male albino and pigmented rats were investigated after a single IV administration of [^14C]API-MA at 1.049 mg/kg (1 mg/kg API-FB). […] The radioactivity, measured in albino rats, was rapidly eliminated from all of the tissues after IV administration of API-MA.
# The urinary, fecal, biliary, and expiratory excretion of the dosed radioactivity was investigated after a single SC or IV administration of [^14C]API-MA at 1.049 mg/kg (1 mg/kg API-FB) to male Sprague-Dawley rats in two studies.
# [3] = Single dose PK, phase 1, healthy Japanese men; assay type: in vivo, human; details: for AUC(0-inf) / CL/F / Cmax / half-life / Tmax / dose excreted: male, human; for AUC(0-inf) / CL/F / Cmax / half-life / Tmax: plasma; for dose excreted: urine
# Experimental: Thirty-seven healthy Japanese male subjects aged 50 to 74 years were enrolled into nine cohorts. Subjects enrolled in the first […] cohorts received 0.001, 0.004, 0.01, 0.04, 0.1, 0.25 or 0.5 mg of API-MA or placebo by single SC bolus. In the 0.001 mg cohort, 3 subjects received API-MA and two received placebo. In the remaining cohorts, 3 subjects received API-MA and one received placebo. Subjects enrolled in the eighth and ninth cohorts received 0.25 or 0.5 mg of API-MA or placebo by single 2-hour SC infusion. In both cohorts, 3 subjects received API-MA and one received placebo. The plasma PK analysis set consisted of 31 subjects (bolus cohorts: 25; infusion cohorts: 6), and the urine PK analysis set consisted of 35 subjects (bolus cohorts: 27; infusion cohorts: 8).
# To measure urinary excretion of API-MA, urine specimens were collected at the following nominal times: predose, 0 to 4, 4 to 8, 8 to 12, 12 to 24, 24 to 36, 36 to 48 and 48 to 72 hours postdose.
# serum LH and PSA = assay: 1-month depot pharmacodynamics, prostate cancer patients; assay type: in vivo, human
# Experimental: Nine patients with prostate cancer were enrolled in another study, three in each dose group (6, 12, and 24 mg). Patients received API-MA as a single 1-month depot injection that was intended to initiate both a high-burst release of API-MA and rapid stimulation of hypothalamic-pituitary-gonadal axis. Overall, 4 of 9 patients received concomitant GnRH therapy. Assessments of pharmacodynamics included LH concentrations and serum PSA concentrations. Results were grouped based on patients who were or were not receiving concomitant GnRH therapy.
# [4] = rats, IV 1 mg/kg API-FB, 24 hours postdose, first study
# [5] = rats, IV 1 mg/kg API-FB, 48 hours postdose, second study
# [6] = rats, SC 1 mg/kg API-FB, 24 hours postdose, first study
# [7] = rats, SC 1 mg/kg API-FB, 48 hours postdose, second study
# [8] = sc, 0.001 mg, single SC bolus 0.001 mg, mean
# [9] = sc, 0.004 mg, single SC bolus 0.004 mg, mean
# [10] = sc, 0.01 mg, single SC bolus 0.01 mg, mean
# [11] = sc, 0.04 mg, single SC bolus 0.04 mg, mean
# [12] = sc, 0.1 mg, single SC bolus 0.1 mg, mean
# [13] = sc, 0.25 mg, single 2-hour SC INF 0.25 mg (plasma N = 1)
# [14] = sc, 0.25 mg, single SC bolus 0.25 mg, mean
# [15] = sc, 0.5 mg, single 2-hour SC INF 0.5 mg, mean
# [16] = sc, 0.5 mg, single SC bolus 0.5 mg, mean
# T1 sequence (A0A8I3S0V2 1-382): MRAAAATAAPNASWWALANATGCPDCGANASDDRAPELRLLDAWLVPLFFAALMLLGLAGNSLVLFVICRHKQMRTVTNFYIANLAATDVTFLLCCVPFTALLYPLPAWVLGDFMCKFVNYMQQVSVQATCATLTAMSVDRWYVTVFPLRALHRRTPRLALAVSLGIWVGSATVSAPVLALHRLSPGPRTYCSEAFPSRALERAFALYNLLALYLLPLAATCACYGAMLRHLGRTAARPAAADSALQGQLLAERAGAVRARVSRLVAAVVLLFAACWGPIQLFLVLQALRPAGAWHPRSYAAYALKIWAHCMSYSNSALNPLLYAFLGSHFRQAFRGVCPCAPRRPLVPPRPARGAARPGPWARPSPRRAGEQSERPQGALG
structure (smiles),measurement,setting,value
"CC(=O)O.CNC(=N)NCCC[C@H](NC(=O)[C@H](CC(C)C)NC(=O)NNC(=O)[C@H](Cc1ccccc1)NC(=O)[C@@H](NC(=O)[C@H](CC(N)=O)NC(=O)[C@@H]1C[C@@H](O)CN1C(=O)[C@@H](Cc1ccc(O)cc1)NC(C)=O)[C@@H](C)O)C(=O)N[C@@H](Cc1c[nH]c2ccccc12)C(N)=O [API-MA, 2-(N-Acetyl-D-tyrosyl-trans-4-hydroxy-L-prolyl-Lasparaginyl-L-threonyl-L-phenylalanyl)-hydrazinocarbonyl-L-leucyl-Nω-methyl-L-arginyl-L-tryptophanamide monoacetate] (Ac-[dY][Hyp]NTF[azaGly]L[Arg(Me)]W-NH2)",EC50,dog KISS1R,2.01 nM
same,Ratio of EC50 of API-MA to kisspeptin (45-54),dog KISS1R; dog KISS1R,1.2
same,Distribution ratio into blood cells,[1]; 0.01 μg/mL API-FB,2.0%
same,Distribution ratio into blood cells,[1]; 0.1 μg/mL API-FB,0.0%
same,Distribution ratio into blood cells,[1]; 1 μg/mL API-FB,0.0%
same,Distribution ratio into blood cells,[1]; 10 μg/mL API-FB,0.5%
same,Tissue distribution of radioactivity,"[2]; male albino and pigmented rats, single IV 1 mg/kg API-FB",distributed widely into the tissues
same,Affinity for melanin in vivo,"[2]; pigmented rats, single IV 1 mg/kg API-FB",little affinity for melanin in vivo
same,Excretion of radioactivity in bile,[2]; [4],20.7%
same,Excretion of radioactivity in feces,[2]; [4],0.3%
same,Excretion of radioactivity in urine,[2]; [4],76.6%
same,Excretion of radioactivity in feces,[2]; [5],28.2%
same,Excretion of radioactivity in urine,[2]; [5],70.0%
same,Excretion of radioactivity in bile,[2]; [6],15.5%
same,Excretion of radioactivity in feces,[2]; [6],0.2%
same,Excretion of radioactivity in urine,[2]; [6],84.7%
same,Excretion of radioactivity in feces,[2]; [7],20.4%
same,Excretion of radioactivity in urine,[2]; [7],78.1%
same,Excretion via expiration,"[2]; rats, SC or IV 1 mg/kg API-FB, second study",minimal
same,Time by which urinary excretion was essentially complete,[3]; cumulative urinary excretion,≤ 24 h
same,AUC(0-inf),[3]; [8],0.0541 ng·h/mL
same,CL/F,[3]; [8],310 mL/min
same,Cmax,[3]; [8],0.0201 ng/mL
same,half-life,"[3]; sc, 0.001 mg, single SC bolus 0.001 mg, mean, read-out: T½ (converted)",1.59 h
same,Tmax,"[3]; sc, 0.001 mg, single SC bolus 0.001 mg, read-out: Tmax, median (range)",0.5 h
same,AUC(0-inf),[3]; [9],0.205 ng·h/mL
same,CL/F,[3]; [9],330 mL/min
same,Cmax,[3]; [9],0.00617 ng/mL
same,half-life,"[3]; sc, 0.004 mg, single SC bolus 0.004 mg, mean, read-out: T½ (converted)",1.91 h
same,Tmax,"[3]; sc, 0.004 mg, single SC bolus 0.004 mg, read-out: Tmax, median (range)",0.5 h
same,AUC(0-inf),[3]; [10],0.671 ng·h/mL
same,CL/F,[3]; [10],250 mL/min
same,Cmax,[3]; [10],0.221 ng/mL
same,half-life,"[3]; sc, 0.01 mg, single SC bolus 0.01 mg, mean, read-out: T½ (converted)",1.82 h
same,Tmax,"[3]; sc, 0.01 mg, single SC bolus 0.01 mg, read-out: Tmax, median (range)",0.5 h
same,AUC(0-inf),[3]; [11],2.61 ng·h/mL
same,CL/F,[3]; [11],278 mL/min
same,Cmax,[3]; [11],0.966 ng/mL
same,half-life,"[3]; sc, 0.04 mg, single SC bolus 0.04 mg, mean, read-out: T½ (converted)",3.35 h
same,Tmax,"[3]; sc, 0.04 mg, single SC bolus 0.04 mg, read-out: Tmax, median (range)",0.5 h
same,AUC(0-inf),[3]; [12],5.79 ng·h/mL
same,CL/F,[3]; [12],298 mL/min
same,Cmax,[3]; [12],2.42 ng/mL
same,half-life,"[3]; sc, 0.1 mg, single SC bolus 0.1 mg, mean, read-out: T½ (converted)",3.58 h
same,Tmax,"[3]; sc, 0.1 mg, single SC bolus 0.1 mg, read-out: Tmax, median (range)",0.375 h
same,AUC(0-inf),[3]; [13],13.3 ng·h/mL
same,CL/F,[3]; [13],313 mL/min
same,Cmax,[3]; [13],4.02 ng/mL
same,Tmax,"[3]; sc, 0.25 mg, single 2-hour SC INF 0.25 mg (plasma N = 1), read-out: Tmax, median (range)",2.25 h
same,half-life,"[3]; sc, 0.25 mg, single 2-hour SC INF 0.25 mg (plasma N = 1), read-out: T½ (converted)",3.77 h
same,AUC(0-inf),[3]; [14],18.3 ng·h/mL
same,CL/F,[3]; [14],228 mL/min
same,Cmax,[3]; [14],5.9 ng/mL
same,half-life,"[3]; sc, 0.25 mg, single SC bolus 0.25 mg, mean, read-out: T½ (converted)",4.09 h
same,Tmax,"[3]; sc, 0.25 mg, single SC bolus 0.25 mg, read-out: Tmax, median (range)",0.75 h
same,AUC(0-inf),[3]; [15],34.6 ng·h/mL
same,CL/F,[3]; [15],243 mL/min
same,Cmax,[3]; [15],8.23 ng/mL
same,half-life,"[3]; sc, 0.5 mg, single 2-hour SC INF 0.5 mg, mean, read-out: T½ (converted)",4.02 h
same,Tmax,"[3]; sc, 0.5 mg, single 2-hour SC INF 0.5 mg, read-out: Tmax, median (range)",2.5 h
same,AUC(0-inf),[3]; [16],30 ng·h/mL
same,CL/F,[3]; [16],282 mL/min
same,Cmax,[3]; [16],9.05 ng/mL
same,half-life,"[3]; sc, 0.5 mg, single SC bolus 0.5 mg, mean, read-out: T½ (converted)",4.27 h
same,Tmax,"[3]; sc, 0.5 mg, single SC bolus 0.5 mg, read-out: Tmax, median (range)",0.5 h
same,Tmax,"[3]; sc, SC bolus, read-out: Median Tmax, range over cohorts",0.375 to 0.75 h
same,half-life,"[3]; subcutaneous, 0.5 mg, 0.25 and 0.5 mg, read-out: Mean T1/2 at the highest doses",3.77 to 4.27 h
same,dose excreted,"[3]; sc, 0.001 mg, single SC bolus 0.001 mg, mean, read-out: Fe (urine)",0%
same,dose excreted,"[3]; sc, 0.004 mg, single SC bolus 0.004 mg, mean, read-out: Fe (urine)",6.16%
same,dose excreted,"[3]; sc, 0.01 mg, single SC bolus 0.01 mg, mean, read-out: Fe (urine)",5.4%
same,dose excreted,"[3]; sc, 0.04 mg, single SC bolus 0.04 mg, mean, read-out: Fe (urine)",4.24%
same,dose excreted,"[3]; sc, 0.1 mg, single SC bolus 0.1 mg, mean, read-out: Fe (urine)",5.2%
same,dose excreted,"[3]; sc, 0.25 mg, single 2-hour SC INF 0.25 mg, mean, read-out: Fe (urine)",6.21%
same,dose excreted,"[3]; sc, 0.25 mg, single SC bolus 0.25 mg, mean, read-out: Fe (urine)",7.1%
same,dose excreted,"[3]; sc, 0.5 mg, single 2-hour SC INF 0.5 mg, mean, read-out: Fe (urine)",5.22%
same,dose excreted,"[3]; sc, 0.5 mg, single SC bolus 0.5 mg, mean, read-out: Fe (urine)",6.33%
same,dose excreted,"[3]; sc, 0.004 to 0.5 mg, bolus and infusion, read-out: Mean Fe, range over cohorts",4.24 to 7.1%
same,API-MA in urine,[3]; single SC bolus 0.001 mg,No API-MA was detected
same,"Greatest percent decrease from baseline in PSA, individual patients","serum LH and PSA; month 1, day 29, 6 mg dose group",8% and 19%
same,"Greatest percent decrease from baseline in PSA, individual patients","serum LH and PSA; month 1, day 29, 12 mg dose group",25% and 62%
same,"Greatest percent decrease from baseline in PSA, individual patients","serum LH and PSA; month 1, day 29, 24 mg dose group",88% and 74% and 79%
same,Greatest reduction in PSA,"serum LH and PSA; month 2 day 29, a patient in the 24 mg dose group",91%
